Where only a bound is given, the exact number is not on record here.

The target in the assay is T1, human plasma protein factor Xa (Homo sapiens, UniProt P00742).
T1 construct: measure proteolytic activity of the enzyme (factor Xa); purchased Haematologic Technologies (Essex Junction, Vt.); host or cells: human plasma
T1 sequence (P00742 235-488 limits assumed): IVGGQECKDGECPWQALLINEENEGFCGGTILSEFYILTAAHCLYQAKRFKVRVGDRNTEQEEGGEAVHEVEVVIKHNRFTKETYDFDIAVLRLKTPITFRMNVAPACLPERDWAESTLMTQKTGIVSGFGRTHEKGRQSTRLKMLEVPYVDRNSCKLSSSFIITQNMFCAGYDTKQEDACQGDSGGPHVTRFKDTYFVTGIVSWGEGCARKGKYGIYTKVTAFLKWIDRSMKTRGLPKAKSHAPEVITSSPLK
T1 sequence (P00742 41-179 partner limits assumed): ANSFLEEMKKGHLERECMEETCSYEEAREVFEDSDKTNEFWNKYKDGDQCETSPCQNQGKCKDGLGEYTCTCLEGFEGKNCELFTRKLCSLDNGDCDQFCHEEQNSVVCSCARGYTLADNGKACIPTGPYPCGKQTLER
Kind of assay: Factor Xa IC50 determination: cleavage of paranitroanilide substrate S-2765 in 96-well plates. The class given is biochemical. The settings on record: fXa 1 nM, S-2765 100 μM, Tris buffered saline pH 7.4, room temperature. In short, it runs like this:
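Initial rates of S-2765 (100 μM final) cleavage, read at 405 nm for 2 min, fitted with a four-parameter equation to give IC50. Enzyme: 1 nM human plasma fXa, 5 min room-temperature preincubation with inhibitor (0.01 nM–10 μM) in 20 mM Tris, 150 mM NaCl, 5 mM CaCl2, 0.1% BSA, 5% DMSO, pH 7.4; duplicates.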
Usually IC50 stands for the concentration at which inhibition is half-maximal. Compound `COc1ccc(CN(C)C)c(-c2ccc(-c3cc(CNC(=O)c4ccc(Cl)s4)on3)cc2)c1` [Example 215, 5-Chloro-thiophene-2-carboxylic acid [3-(2′-dimethylaminomethyl-5′-methoxy-biphenyl-4-yl)-isoxazol-5-ylmethyl]-amide] had a concentration for half-maximal inhibition (IC50) not below 500 nM.

`COc1ccc(CN2CCCC2)c(-c2ccc(-c3cc(CNC(=O)c4ccc(Cl)s4)on3)cc2)c1` [Example 216, 5-Chloro-thiophene-2-carboxylic acid [3-(5′-methoxy-2′-pyrrolidin-1-ylmethyl-biphenyl-4-yl)-isoxazol-5-ylmethyl]-amide] returned an IC50 not above 100 nM.

The compound `COc1ccc(-c2ccc(-c3cc(CNC(=O)c4ccc(Cl)s4)on3)cc2)c(CN(C)C)c1` [Example 217, 5-Chloro-thiophene-2-carboxylic acid [3-(2′-dimethylaminomethyl-4′-methoxy-biphenyl-4-yl)-isoxazol-5-ylmethyl]-amide] displayed an IC50 not above 100 nM.

For `COc1ccc(-c2ccc(-c3cc(CNC(=O)c4ccc(Cl)s4)on3)cc2)c(CN2CCCC2)c1` [Example 218, 5-Chloro-thiophene-2-carboxylic acid [3-(4′-methoxy-2′-pyrrolidin-1-ylmethyl-biphenyl-4-yl)-isoxazol-5-ylmethyl]-amide], the IC50 is not above 100 nM.

`O=C(NCC1CC(c2ccc(-c3ccccn3)cc2)=NO1)c1ccc(Cl)s1` (stereo not drawn) [Example 219, 5-Chloro-thiophene-2-carboxylic acid [3-(4-pyridin-2-yl-phenyl)-4,5-dihydro-isoxazol-5-ylmethyl]-amide] registered an IC50 not above 100 nM.

`O=C(NCc1cc(-c2ccc(-c3ccccn3)cc2)no1)c1ccc(Cl)s1` [Example 220, 5-Chloro-thiophene-2-carboxylic acid [3-(4-pyridin-2-yl-phenyl)-isoxazol-5-ylmethyl]-amide] showed an IC50 not below 500 nM.

`O=C(NCC1CC(c2ccc(NCc3ccccc3)cc2)=NO1)c1ccc(Cl)s1` (stereo not drawn) [Example 221, 5-Chloro-thiophene-2-carboxylic acid [3-(4-benzylamino-phenyl)-4,5-dihydro-isoxazol-5-ylmethyl]-amide] returned an IC50 not below 500 nM.

In turn, `O=C(NCC1CC(c2ccc(Nc3ccccc3)cc2)=NO1)c1ccc(Cl)s1` (stereo not drawn) [Example 222, 5-Chloro-thiophene-2-carboxylic acid [3-(4-phenylamino-phenyl)-4,5-dihydro-isoxazol-5-ylmethyl]-amide] gave an IC50 not below 500 nM.

Turning to `O=C(NCC1CC(c2ccc(Nc3ccc(F)cc3)cc2)=NO1)c1ccc(Cl)s1` (stereo not drawn) [Example 223, 5-Chloro-thiophene-2-carboxylic acid {3-[4-(4-fluoro-phenylamino)-phenyl]-4,5-dihydro-isoxazol-5-ylmethyl}-amide], the IC50 was not below 500 nM.

`O=C(NCC1CC(c2ccc(Nc3ccccn3)cc2)=NO1)c1ccc(Cl)s1` (stereo not drawn) [Example 224, 5-Chloro-thiophene-2-carboxylic acid {3-[4-(pyridin-2-ylamino)-phenyl]-4,5-dihydro-isoxazol-5-ylmethyl}-amide] came in with an IC50 not below 500 nM.

Turning to `O=C(NCC1CC(c2ccc(Nc3cccnc3)cc2)=NO1)c1ccc(Cl)s1` (stereo not drawn) [Example 225, 5-Chloro-thiophene-2-carboxylic acid {3-[4-(pyridin-3-ylamino)-phenyl]-4,5-dihydro-isoxazol-5-ylmethyl}-amide], the IC50 is not above 100 nM.

Consider `O=C(NCC1CC(c2ccc(Nc3ccncc3)cc2)=NO1)c1ccc(Cl)s1` (stereo not drawn) [Example 226, 5-Chloro-thiophene-2-carboxylic acid {3-[4-(pyridin-4-ylamino)-phenyl]-4,5-dihydro-isoxazol-5-ylmethyl}-amide], for which the IC50 is not above 100 nM.

As to `CN(c1ccncc1)c1ccc(C2=NOC(CNC(=O)c3ccc(Cl)s3)C2)cc1` (stereo not drawn) [Example 227, 5-Chloro-thiophene-2-carboxylic acid {3-[4-(methyl-pyridin-4-yl-amino)-phenyl]-4,5-dihydro-isoxazol-5-ylmethyl}-amide], the IC50 was not above 100 nM.

`Cc1cc(Nc2ccc(C3=NOC(CNC(=O)c4ccc(Cl)s4)C3)cc2)ccn1` (stereo not drawn) [Example 228, 5-Chloro-thiophene-2-carboxylic acid {3-[4-(2-methyl-pyridin-4-ylamino)-phenyl]-4,5-dihydro-isoxazol-5-ylmethyl}-amide] returned a half-inhibitory concentration (IC50) not below 500 nM.

The compound `O=C(NCC1CC(c2ccc(Nc3ccnc(Cl)c3)cc2)=NO1)c1ccc(Cl)s1` (stereo not drawn) [Example 229, 5-Chloro-thiophene-2-carboxylic acid {3-[4-(2-chloro-pyridin-4-ylamino)-phenyl]-4,5-dihydro-isoxazol-5-ylmethyl}-amide] yielded an IC50 of 100 to 500 nM.

Compound `O=C(NCC1CC(c2ccc(Nc3ccncn3)cc2)=NO1)c1ccc(Cl)s1` (stereo not drawn) [Example 230, 5-Chloro-thiophene-2-carboxylic acid {3-[4-(pyrimidin-4-ylamino)-phenyl]-4,5-dihydro-isoxazol-5-ylmethyl}-amide] registered an IC50 of 100 to 500 nM.

`CN(c1ccc(C2=NOC(CNC(=O)c3ccc(Cl)s3)C2)cc1)c1ccnc(N)n1` (stereo not drawn) [Example 231, 5-Chloro-thiophene-2-carboxylic acid (3-{4-[(2-amino-pyrimidin-4-yl)-methyl-amino]-phenyl}-4,5-dihydro-isoxazol-5-ylmethyl)-amide] came in with an IC50 not below 500 nM.

`CCn1nccc1Nc1ccc(C2=NOC(CNC(=O)c3ccc(Cl)s3)C2)cc1` (stereo not drawn) [Example 232, 5-Chloro-thiophene-2-carboxylic acid {3-[4-(2-ethyl-2H-pyrazol-3-ylamino)-phenyl]-4,5-dihydro-isoxazol-5-ylmethyl}-amide]: the 50% inhibitory concentration (IC50) was not below 500 nM.

With `Cn1ccc(Nc2ccc(C3=NOC(CNC(=O)c4ccc(Cl)s4)C3)cc2)n1` (stereo not drawn) [Example 233, 5-Chloro-thiophene-2-carboxylic acid {3-[4-(1-methyl-1H-pyrazol-3-ylamino)-phenyl]-4,5-dihydro-isoxazol-5-ylmethyl}-amide], the IC50 was in the range of 100 to 500 nM.

`O=C(NCC1CC(c2ccc(N3CCOCC3)cc2)=NO1)c1ccc(Cl)s1` (stereo not drawn) [Example 234, 5-Chloro-thiophene-2-carboxylic acid [3-(4-morpholin-4-yl-phenyl)-4,5-dihydro-isoxazol-5-ylmethyl]-amide] had an IC50 not below 500 nM.

In turn, `CN1CCN(c2ccc(C3=NOC(CNC(=O)c4ccc(Cl)s4)C3)cc2)CC1` (stereo not drawn) [Example 235, 5-Chloro-thiophene-2-carboxylic acid {3-[4-(4-methyl-piperazin-1-yl)-phenyl]-4,5-dihydro-isoxazol-5-ylmethyl}-amide] gave an IC50 of 100 to 500 nM.

`COC[C@H]1CCCN1c1ccc(C2=NOC(CNC(=O)c3ccc(Cl)s3)C2)cc1` (stereo partly drawn) [Example 236, 5-Chloro-thiophene-2-carboxylic acid {3-[4-(2-methoxymethyl-pyrrolidin-1-yl)-phenyl]-4,5-dihydro-isoxazol-5-ylmethyl}-amide] had an IC50 not below 500 nM.

As to `CN1CCC(Nc2ccc(C3=NOC(CNC(=O)c4ccc(Cl)s4)C3)cc2)CC1` (stereo not drawn) [Example 237, 5-Chloro-thiophene-2-carboxylic acid {3-[4-(1-methyl-piperidin-4-ylamino)-phenyl]-4,5-dihydro-isoxazol-5-ylmethyl}-amide], the IC50 was in the range of 100 to 500 nM.

Turning to `CN(C)CCN(C)c1ccc(C2=NOC(CNC(=O)c3ccc(Cl)s3)C2)cc1` (stereo not drawn) [Example 238, 5-Chloro-thiophene-2-carboxylic acid (3-{4-[(2-dimethylamino-ethyl)-methyl-amino]-phenyl}-4,5-dihydro-isoxazol-5-ylmethyl)-amide], the IC50 is 100 to 500 nM.

Values taken from patent publication US8377974B2 (Millennium Pharmaceuticals, Inc., priority 2004, dated 2013).
